Experiments:
Assay in all cases: KinaseProfiler
Assay type in all cases: biochemical
Conditions in all cases: 10 μM, ATP near Km
AKT1 = biological target: T1, AKT1 (Homo sapiens, UniProt P31749)
T1 construct: purchased Millipore (KinaseProfiler service)
In short: (§1)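 ATP was held near the Km for every individual kinase. Testing used 10 μM inhibitor in two replicate runs, and reported numbers are average POC.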

EphA4 = biological target: T2, EphA4 (Homo sapiens, UniProt P54764)
T2 construct: purchased Millipore, Inc. (KinaseProfiler service)
In short: as §1

PDK1 = biological target: T3, PDK1 (Homo sapiens, UniProt O15530)
T3 construct: purchased Millipore, Inc. (KinaseProfiler service)
In short: as §1

CHK1 = biological target: T4, CHK1 (Homo sapiens, UniProt O14757)
T4 construct: purchased Millipore, Inc. (KinaseProfiler service)
In short: as §1

ERK1 = biological target: T5, ERK1 (Homo sapiens, UniProt P27361)
T5 construct: purchased Millipore, Inc. (KinaseProfiler service)
In short: as §1

PKCbetaI = biological target: T6, PKCbetaI (Homo sapiens, UniProt P05771)
T6 construct: purchased Millipore, Inc. (KinaseProfiler service)
T6 sequence (P05771 whole entry): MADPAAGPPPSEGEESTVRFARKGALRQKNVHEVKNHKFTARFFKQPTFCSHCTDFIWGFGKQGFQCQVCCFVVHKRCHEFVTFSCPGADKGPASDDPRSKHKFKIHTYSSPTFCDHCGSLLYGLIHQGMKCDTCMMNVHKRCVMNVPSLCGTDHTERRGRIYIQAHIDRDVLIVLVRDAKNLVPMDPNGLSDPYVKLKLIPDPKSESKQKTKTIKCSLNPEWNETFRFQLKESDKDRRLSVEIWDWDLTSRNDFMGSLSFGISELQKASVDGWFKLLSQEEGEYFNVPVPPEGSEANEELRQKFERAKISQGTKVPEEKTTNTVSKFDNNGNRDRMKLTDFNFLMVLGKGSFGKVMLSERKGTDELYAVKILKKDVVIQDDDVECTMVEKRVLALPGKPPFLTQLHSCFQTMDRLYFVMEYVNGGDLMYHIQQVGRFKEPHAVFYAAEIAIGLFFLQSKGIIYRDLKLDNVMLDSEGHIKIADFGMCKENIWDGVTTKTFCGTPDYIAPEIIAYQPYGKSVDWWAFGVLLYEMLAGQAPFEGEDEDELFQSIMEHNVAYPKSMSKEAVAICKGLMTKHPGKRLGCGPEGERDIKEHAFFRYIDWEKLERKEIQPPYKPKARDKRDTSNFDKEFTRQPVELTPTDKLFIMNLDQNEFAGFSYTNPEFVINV
In short: as §1

Rsk3 = biological target: T7, Rsk3 (Homo sapiens, UniProt Q15349)
T7 construct: purchased Millipore, Inc. (KinaseProfiler service)
In short: as §1

MKK7beta = biological target: T8, MKK7beta (Homo sapiens, UniProt O14733)
T8 construct: purchased Millipore, Inc. (KinaseProfiler service)
T8 sequence (O14733 whole entry): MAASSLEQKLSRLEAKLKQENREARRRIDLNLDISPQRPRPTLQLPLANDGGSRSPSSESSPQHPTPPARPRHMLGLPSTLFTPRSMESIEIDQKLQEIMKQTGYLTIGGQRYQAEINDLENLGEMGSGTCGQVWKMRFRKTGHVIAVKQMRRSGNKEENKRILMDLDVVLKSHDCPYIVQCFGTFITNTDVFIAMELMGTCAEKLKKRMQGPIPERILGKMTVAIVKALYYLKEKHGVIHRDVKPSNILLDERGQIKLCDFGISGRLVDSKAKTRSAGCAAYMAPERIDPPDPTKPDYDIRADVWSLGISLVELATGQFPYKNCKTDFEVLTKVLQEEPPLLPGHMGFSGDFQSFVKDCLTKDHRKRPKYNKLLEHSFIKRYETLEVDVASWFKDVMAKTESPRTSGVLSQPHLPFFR
In short: as §1

SGK1 = biological target: T9, SGK1 (Homo sapiens, UniProt O00141)
T9 construct: purchased Millipore, Inc. (KinaseProfiler service)
In short: as §1

PKCeta = biological target: T10, PKCeta (Homo sapiens, UniProt P24723)
T10 construct: purchased Millipore, Inc. (KinaseProfiler service)
In short: as §1

CK1_y = system: CK1_y
In short: as §1

p38gamma = biological target: T11, p38gamma (Homo sapiens, UniProt P53778)
T11 construct: purchased Millipore, Inc. (KinaseProfiler service)
In short: as §1

IRR = biological target: T12, IRR (Homo sapiens, UniProt P14616)
T12 construct: purchased Millipore, Inc. (KinaseProfiler service)
T12 sequence (P14616 27-1297): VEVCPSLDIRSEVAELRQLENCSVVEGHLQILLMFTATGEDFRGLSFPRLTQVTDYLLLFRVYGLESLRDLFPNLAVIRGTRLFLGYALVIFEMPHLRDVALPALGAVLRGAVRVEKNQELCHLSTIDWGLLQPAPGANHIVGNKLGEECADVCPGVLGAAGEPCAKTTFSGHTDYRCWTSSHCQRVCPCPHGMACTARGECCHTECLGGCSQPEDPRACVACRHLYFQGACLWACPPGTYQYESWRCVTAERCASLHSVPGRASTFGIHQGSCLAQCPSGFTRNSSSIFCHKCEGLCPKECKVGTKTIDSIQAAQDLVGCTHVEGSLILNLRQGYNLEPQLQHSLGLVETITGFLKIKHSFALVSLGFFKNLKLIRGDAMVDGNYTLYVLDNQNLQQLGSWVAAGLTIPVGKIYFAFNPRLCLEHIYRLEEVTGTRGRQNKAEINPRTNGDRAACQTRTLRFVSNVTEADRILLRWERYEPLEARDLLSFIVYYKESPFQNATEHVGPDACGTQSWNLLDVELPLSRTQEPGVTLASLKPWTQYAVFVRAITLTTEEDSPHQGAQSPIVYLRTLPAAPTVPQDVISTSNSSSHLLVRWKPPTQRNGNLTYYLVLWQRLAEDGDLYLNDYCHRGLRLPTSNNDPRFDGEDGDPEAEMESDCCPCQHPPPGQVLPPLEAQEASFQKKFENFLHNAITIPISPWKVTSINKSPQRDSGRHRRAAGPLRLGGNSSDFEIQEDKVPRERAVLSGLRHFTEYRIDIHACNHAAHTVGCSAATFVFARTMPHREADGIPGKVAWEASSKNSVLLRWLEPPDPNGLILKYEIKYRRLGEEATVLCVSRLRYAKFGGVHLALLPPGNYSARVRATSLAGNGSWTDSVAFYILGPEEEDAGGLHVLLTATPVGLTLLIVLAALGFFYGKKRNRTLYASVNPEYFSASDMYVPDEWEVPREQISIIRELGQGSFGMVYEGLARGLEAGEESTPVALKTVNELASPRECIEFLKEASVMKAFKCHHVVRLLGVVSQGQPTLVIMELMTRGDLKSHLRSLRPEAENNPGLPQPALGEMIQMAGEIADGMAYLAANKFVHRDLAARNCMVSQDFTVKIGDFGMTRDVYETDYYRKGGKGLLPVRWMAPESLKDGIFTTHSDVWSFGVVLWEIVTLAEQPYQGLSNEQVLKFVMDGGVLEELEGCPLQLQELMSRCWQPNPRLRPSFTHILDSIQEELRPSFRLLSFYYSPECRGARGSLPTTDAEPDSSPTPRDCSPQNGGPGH
In short: as §1

p38delta = biological target: T13, p38delta (Homo sapiens, UniProt O15264)
T13 construct: purchased Millipore, Inc. (KinaseProfiler service)
In short: as §1

CK1gamma2 = biological target: T14, CK1gamma2 (Homo sapiens, UniProt P78368)
T14 construct: purchased Millipore, Inc. (KinaseProfiler service)
T14 sequence (P78368 whole entry): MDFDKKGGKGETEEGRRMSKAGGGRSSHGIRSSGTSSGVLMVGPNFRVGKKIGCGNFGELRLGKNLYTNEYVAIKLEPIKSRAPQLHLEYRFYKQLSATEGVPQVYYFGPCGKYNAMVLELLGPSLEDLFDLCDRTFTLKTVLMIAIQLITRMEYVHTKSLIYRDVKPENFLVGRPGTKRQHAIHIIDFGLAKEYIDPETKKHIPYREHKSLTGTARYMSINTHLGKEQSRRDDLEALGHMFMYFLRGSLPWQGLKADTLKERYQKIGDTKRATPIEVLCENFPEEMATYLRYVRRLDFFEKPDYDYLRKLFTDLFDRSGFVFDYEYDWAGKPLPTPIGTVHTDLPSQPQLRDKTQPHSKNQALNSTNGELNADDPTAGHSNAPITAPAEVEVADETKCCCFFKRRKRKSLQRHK
In short: as §1

IR = biological target: T15, IR (Homo sapiens, UniProt P06213)
T15 construct: purchased Millipore, Inc. (KinaseProfiler service)
In short: as §1

KIT = biological target: T16, KIT (Homo sapiens, UniProt P10721)
T16 construct: purchased Millipore, Inc. (KinaseProfiler service)
In short: as §1

Flt3 = biological target: T17, Flt3 (Homo sapiens, UniProt P36888)
T17 construct: purchased Millipore, Inc. (KinaseProfiler service)
T17 sequence (P36888 27-993): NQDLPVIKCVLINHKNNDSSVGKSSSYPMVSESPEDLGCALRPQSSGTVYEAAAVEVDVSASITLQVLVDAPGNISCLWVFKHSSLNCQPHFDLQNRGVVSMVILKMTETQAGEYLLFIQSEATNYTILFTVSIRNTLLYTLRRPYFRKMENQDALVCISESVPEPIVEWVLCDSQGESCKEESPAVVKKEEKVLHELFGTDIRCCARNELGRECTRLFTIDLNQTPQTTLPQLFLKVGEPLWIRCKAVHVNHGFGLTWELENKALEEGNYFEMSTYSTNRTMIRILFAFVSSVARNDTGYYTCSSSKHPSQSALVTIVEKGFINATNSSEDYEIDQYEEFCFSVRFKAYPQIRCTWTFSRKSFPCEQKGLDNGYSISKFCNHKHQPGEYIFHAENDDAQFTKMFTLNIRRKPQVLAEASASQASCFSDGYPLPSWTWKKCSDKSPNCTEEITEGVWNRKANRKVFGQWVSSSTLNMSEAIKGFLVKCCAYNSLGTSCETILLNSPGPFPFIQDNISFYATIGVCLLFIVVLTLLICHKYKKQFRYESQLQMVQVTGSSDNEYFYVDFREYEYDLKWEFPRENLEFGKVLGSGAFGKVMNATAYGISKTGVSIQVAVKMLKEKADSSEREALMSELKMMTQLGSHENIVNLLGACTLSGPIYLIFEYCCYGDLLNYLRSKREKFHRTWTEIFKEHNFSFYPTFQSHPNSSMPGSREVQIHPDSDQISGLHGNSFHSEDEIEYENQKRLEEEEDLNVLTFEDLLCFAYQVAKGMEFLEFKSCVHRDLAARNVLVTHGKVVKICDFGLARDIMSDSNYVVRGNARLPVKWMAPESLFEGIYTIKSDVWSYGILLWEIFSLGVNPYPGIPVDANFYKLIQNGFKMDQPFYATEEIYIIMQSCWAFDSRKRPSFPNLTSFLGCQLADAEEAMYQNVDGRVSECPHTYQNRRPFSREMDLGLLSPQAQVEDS
In short: as §1

Syk = biological target: T18, Syk (Homo sapiens, UniProt P43405)
T18 construct: purchased Millipore, Inc. (KinaseProfiler service)
In short: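 Inhibition was profiled at 10 μM in duplicate. Kinase-specific ATP levels near Km were used, and residual activity is stated as percent of control, averaged over both replicates.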

ERK2 = biological target: T19, ERK2 (Homo sapiens, UniProt P28482)
T19 construct: purchased Millipore, Inc. (KinaseProfiler service)
In short: as §1

PhKgamma2 = biological target: T20, PhKgamma2 (Homo sapiens, UniProt P15735)
T20 construct: purchased Millipore, Inc. (KinaseProfiler service)
In short: as §1

SIK = biological target: T21, SIK (Homo sapiens, UniProt P57059)
T21 construct: purchased Millipore, Inc. (KinaseProfiler service)
In short: as §1

CHK2 = biological target: T22, CHK2 (Homo sapiens, UniProt O96017)
T22 construct: purchased Millipore, Inc. (KinaseProfiler service)
In short: as §1

IGF-1R = biological target: T23, IGF-1R (Homo sapiens, UniProt P08069)
T23 construct: purchased Millipore, Inc. (KinaseProfiler service)
In short: as §1

EphA1 = biological target: T24, EphA1 (Homo sapiens, UniProt P21709)
T24 construct: purchased Millipore, Inc. (KinaseProfiler service)
In short: as §1

CAMK2b = biological target: T25, CAMK2b (Homo sapiens, UniProt Q13554)
T25 construct: purchased Millipore (KinaseProfiler service)
In short: as §1

MARK2 = biological target: T26, MARK2 (Homo sapiens, UniProt Q7KZI7)
T26 construct: purchased Millipore, Inc. (KinaseProfiler service)
T26 sequence (Q7KZI7 whole entry): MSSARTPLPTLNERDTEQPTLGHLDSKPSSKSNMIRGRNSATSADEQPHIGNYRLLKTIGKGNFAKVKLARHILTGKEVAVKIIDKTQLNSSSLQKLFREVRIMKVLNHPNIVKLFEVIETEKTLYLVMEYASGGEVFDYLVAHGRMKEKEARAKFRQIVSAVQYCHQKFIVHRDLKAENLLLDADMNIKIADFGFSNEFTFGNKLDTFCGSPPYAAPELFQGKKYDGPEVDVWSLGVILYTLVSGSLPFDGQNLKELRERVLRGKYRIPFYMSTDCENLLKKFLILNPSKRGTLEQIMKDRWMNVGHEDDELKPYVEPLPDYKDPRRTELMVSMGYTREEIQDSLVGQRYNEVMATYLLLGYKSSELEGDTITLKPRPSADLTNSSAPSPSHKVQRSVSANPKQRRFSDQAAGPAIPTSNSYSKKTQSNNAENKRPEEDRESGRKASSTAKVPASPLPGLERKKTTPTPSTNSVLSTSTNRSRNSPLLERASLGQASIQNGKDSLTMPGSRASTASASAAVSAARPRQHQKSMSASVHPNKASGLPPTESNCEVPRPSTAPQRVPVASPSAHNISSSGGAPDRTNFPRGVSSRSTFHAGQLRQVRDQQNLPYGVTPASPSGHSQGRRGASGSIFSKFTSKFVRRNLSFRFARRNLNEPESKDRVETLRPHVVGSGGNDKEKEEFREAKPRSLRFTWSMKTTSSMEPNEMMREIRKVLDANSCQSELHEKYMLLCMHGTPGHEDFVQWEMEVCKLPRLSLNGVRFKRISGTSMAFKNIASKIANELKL
In short: as §1

Axl = biological target: T27, Axl (Homo sapiens, UniProt P30530)
T27 construct: purchased Millipore (KinaseProfiler service)
In short: as §1

Pim-3 = biological target: T28, Pim-3 (Homo sapiens, UniProt Q86V86)
T28 construct: purchased Millipore, Inc. (KinaseProfiler service)
In short: as §1

Ret = biological target: T29, Ret (Homo sapiens, UniProt P07949)
T29 construct: purchased Millipore, Inc. (KinaseProfiler service)
In short: as §1

NEK7 = biological target: T30, NEK7 (Homo sapiens, UniProt Q8TDX7)
T30 construct: purchased Millipore, Inc. (KinaseProfiler service)
In short: as §1

PrKX = biological target: T31, PrKX (Homo sapiens, UniProt P51817)
T31 construct: purchased Millipore, Inc. (KinaseProfiler service)
T31 sequence (P51817 whole entry): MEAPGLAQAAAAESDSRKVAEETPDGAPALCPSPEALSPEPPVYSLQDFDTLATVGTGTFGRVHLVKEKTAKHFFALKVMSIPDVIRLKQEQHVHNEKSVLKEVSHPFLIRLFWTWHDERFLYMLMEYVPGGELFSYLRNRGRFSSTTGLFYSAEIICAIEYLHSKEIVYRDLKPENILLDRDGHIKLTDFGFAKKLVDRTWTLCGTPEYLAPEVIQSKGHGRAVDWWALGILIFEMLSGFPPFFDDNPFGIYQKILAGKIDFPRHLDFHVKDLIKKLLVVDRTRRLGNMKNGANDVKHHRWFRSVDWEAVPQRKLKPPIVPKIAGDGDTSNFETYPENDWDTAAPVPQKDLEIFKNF
In short: as §1

Abl-P = biological target: T32, Abl-P (Homo sapiens, UniProt P00519)
T32 construct: purchased Millipore (KinaseProfiler service)
In short: as §1

Fms = biological target: T33, Fms (Homo sapiens, UniProt P07333)
T33 construct: purchased Millipore, Inc. (KinaseProfiler service)
In short: as §1

EGFR = biological target: T34, EGFR (Homo sapiens, UniProt P00533)
T34 construct: purchased Millipore, Inc. (KinaseProfiler service)
In short: as §1

CDK6/cyclinD3 = biological target: T35, CDK6/cyclinD3 (Homo sapiens, UniProt Q00534)
T35 construct: purchased Millipore, Inc. (KinaseProfiler service)
In short: as §1

TEC Activated = biological target: T36, TEC Activated (Homo sapiens, UniProt P42680)
T36 construct: purchased Millipore, Inc. (KinaseProfiler service)
In short: as §1

EphA8 = biological target: T37, EphA8 (Homo sapiens, UniProt P29322)
T37 construct: purchased Millipore, Inc. (KinaseProfiler service)
In short: as §1

NLK = biological target: T38, NLK (Homo sapiens, UniProt Q9UBE8)
T38 construct: purchased Millipore, Inc. (KinaseProfiler service)
In short: as §1

EphA5 = biological target: T39, EphA5 (Homo sapiens, UniProt P54756)
T39 construct: purchased Millipore, Inc. (KinaseProfiler service)
In short: as §1

IGF-1R Activated = biological target: T40, IGF-1R Activated (Homo sapiens, UniProt P08069)
T40 construct: purchased Millipore, Inc. (KinaseProfiler service)
In short: as §1

COCCCc1cc(Cl)c(Cl)cc1NC(=O)Nc1c(C)c(-c2cnn(C)c2)nn1-c1ccccc1 [Example 15, 1-(4,5-dichloro-2-(3-methoxypropyl)phenyl)-3-(1′,4-dimethyl-1-phenyl-1H,1′H-[3,4′-bipyrazol]-5-yl)urea]
Avg POC (AKT1): 120 POC | Avg POC (EphA4): 115 POC | Avg POC (PDK1): 116.5 POC | Avg POC (CHK1): 118 POC | Avg POC (ERK1): 103.5 POC | Avg POC (PKCbetaI): 106 POC | Avg POC (Rsk3): 104 POC | Avg POC (MKK7beta): 140 POC | Avg POC (SGK1): 124 POC | Avg POC (PKCeta): 105.5 POC | Avg POC (CK1_y): 96.5 POC | Avg POC (p38gamma): 108 POC | Avg POC (IRR): 99.5 POC | Avg POC (p38delta): 100.5 POC | Avg POC (CK1gamma2): 120 POC | Avg POC (IR): 95 POC | Avg POC (KIT): 99.5 POC | Avg POC (Flt3): 81 POC | Avg POC (Syk): 100 POC | Avg POC (ERK2): 108 POC | Avg POC (PhKgamma2): 110.5 POC | Avg POC (SIK): 137 POC | Avg POC (CHK2): 130 POC | Avg POC (IGF-1R): 85 POC | Avg POC (EphA1): 117 POC | Avg POC (CAMK2b): 101.5 POC | Avg POC (MARK2): 101.5 POC | Avg POC (Axl): 107 POC | Avg POC (Pim-3): 105.5 POC | Avg POC (Ret): 91.5 POC | Avg POC (NEK7): 142 POC | Avg POC (PrKX): 134 POC | Avg POC (Abl-P): 140.5 POC | Avg POC (Fms): 94 POC | Avg POC (EGFR): 103 POC | Avg POC (CDK6/cyclinD3): 111 POC | Avg POC (TEC Activated): 101.5 POC | Avg POC (EphA8): 127.5 POC | Avg POC (NLK): 117 POC | Avg POC (EphA5): 115.5 POC | Avg POC (IGF-1R Activated): 102 POC
